SMILES strings stand for the structures.

For one assay, the system named is alpha-chymotrypsin. The format is biochemical, human. Particulars: read-out: IC50 Chymo-trypsin.
The target of another assay is MERS-CoV 3CLpro (Middle East respiratory syndrome-related coronavirus, UniProt K9N7C7). The format is biochemical.
Another assay deals with SARS-CoV-2 3CLpro (Severe acute respiratory syndrome coronavirus 2, UniProt P0DTD1). The format is biochemical.

MERS-CoV 3CLpro, sequence (K9N7C7 3248-3553 limits assumed): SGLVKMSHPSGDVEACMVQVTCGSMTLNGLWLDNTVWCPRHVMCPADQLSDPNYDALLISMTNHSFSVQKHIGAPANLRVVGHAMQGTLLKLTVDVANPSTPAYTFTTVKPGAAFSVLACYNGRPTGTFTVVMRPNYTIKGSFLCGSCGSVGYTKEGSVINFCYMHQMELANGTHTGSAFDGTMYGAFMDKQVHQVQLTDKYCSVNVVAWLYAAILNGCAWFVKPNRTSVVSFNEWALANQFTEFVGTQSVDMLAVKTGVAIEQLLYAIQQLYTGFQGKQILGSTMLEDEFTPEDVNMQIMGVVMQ

As to `CC(C)C[C@H](NC(=O)OCC(C)(C)Sc1ccccc1)C(=O)N[C@H](C#N)C[C@@H]1CCNC1=O` [1g, 2-Methyl-2-(phenylthio)propyl ((S)-1-(((S)-1-cyano-2-((S)-2-oxopyrrolidin-3-yl)ethyl)amino)-4-methyl-1-oxopentan-2-yl)carbamate], the IC50 with alpha-chymotrypsin is over 50 µM.

Consider `CC(C)C[C@H](NC(=O)OCC(C)(C)Sc1nc2ccccc2[nH]1)C(=O)N[C@H](C=O)C[C@@H]1CCNC1=O` [9c, 2-((1H-benzo[d]imidazole-2-yl)thio)-2-methylpropyl ((S)-4-methyl-1-oxo-1-(((S)-1-oxo-3-((S)-2-oxopyrrolidin-3-yl)propan-2-yl)amino)pentan-2-yl)carbamate], for which, on MERS-CoV 3CLpro, the “fold reduction in potency relative to 1c against MERS-CoV 3CLpro” value came to 1.5 fold. For the same compound, the “fold less active than 1c against SARS-CoV-2 3CLpro” value on SARS-CoV-2 3CLpro is on record as “more than 4 fold”.

As for `[2H]C([2H])(OC(=O)N[C@@H](CC(C)C)C(=O)N[C@H](C=O)C[C@@H]1CCNC1=O)C(C)(C)Oc1ccc(Cl)cc1` [12c, 2-(4-Chlorophenoxy)-2-methylpropyl-1,1-d2 ((S)-4-methyl-1-oxo-1-(((S)-1-oxo-3-((S)-2-oxopyrrolidin-3-yl)propan-2-yl)amino)pentan-2-yl)carbamate], the half-inhibitory concentration (IC50) in the assay with alpha-chymotrypsin is over 50 µM.

With `CC(C)C[C@H](NC(=O)OCC(C)(C)Sc1cccc(Cl)c1)C(=O)N[C@H](C=O)C[C@@H]1CCNC1=O` [7c, 2-((3-Chlorophenyl)thio)-2-methylpropyl ((S)-4-methyl-1-oxo-1-(((S)-1-oxo-3-((S)-2-oxopyrrolidin-3-yl)propan-2-yl)amino)pentan-2-yl)carbamate], the IC50 with alpha-chymotrypsin was over 50 µM.

For the compound `CC(C)C[C@H](NC(=O)OCC(C)(C)Sc1ccccc1)C(=O)N[C@@H](C[C@@H]1CCNC1=O)C(=O)C(=O)NC1CC1` [1e, 2-Methyl-2-(phenylthio)propyl ((S)-1-(((S)-4-(cyclopropylamino)-3,4-dioxo-1-((S)-2-oxopyrrolidin-3-yl)butan-2-yl)amino)-4-methyl-1-oxopentan-2-yl)carbamate], in the assay on alpha-chymotrypsin, the IC50 is over 50 µM.

In the case of `CC(C)C[C@H](NC(=O)OCC(C)(C)Oc1cccc(Cl)c1)C(=O)N[C@H](C=O)C[C@@H]1CCNC1=O` [13c, 2-(3-Chlorophenoxy)-2-methylpropyl ((S)-4-methyl-1-oxo-1-(((S)-1-oxo-3-((S)-2-oxopyrrolidin-3-yl)propan-2-yl)amino)pentan-2-yl)carbamate], the IC50 in the assay on alpha-chymotrypsin was over 50 µM.

Consider `CC(C)C[C@H](NC(=O)OCC(C)(C)Oc1ccc(F)cc1)C(=O)N[C@H](C=O)C[C@@H]1CCNC1=O` [15c, 2-(4-Fluorophenoxy)-2-methylpropyl ((S)-4-methyl-1-oxo-1-(((S)-1-oxo-3-((S)-2-oxopyrrolidin-3-yl)propan-2-yl)amino)pentan-2-yl)carbamate], for which the IC50 with alpha-chymotrypsin was over 50 µM.

Turning to `CC(C)C[C@H](NC(=O)OCC(C)(C)Sc1ccccc1)C(=O)N[C@H](C=O)C[C@@H]1CCNC1=O` [1c, 2-Methyl-2-(phenylthio)propyl ((S)-4-methyl-1-oxo-1-(((S)-1-oxo-3-((S)-2-oxopyrrolidin-3-yl)propan-2-yl)amino)pentan-2-yl)carbamate], the “fold higher potency than 8c against MERS-CoV 3CLpro” value on MERS-CoV 3CLpro was about 2 fold. Further, the “fold higher potency than 8c against SARS-CoV-2 3CLpro” value on SARS-CoV-2 3CLpro is reported as 4.6 fold. The IC50 in the assay on alpha-chymotrypsin was over 50 µM.

`CC(C)C[C@H](NC(=O)OCC(C)(C)Oc1ccccc1)C(=O)N[C@H](C=O)C[C@@H]1CCNC1=O` [10c, 2-Methyl-2-phenoxypropyl ((S)-4-methyl-1-oxo-1-(((S)-1-oxo-3-((S)-2-oxopyrrolidin-3-yl)propan-2-yl)amino)pentan-2-yl)carbamate]: the “fold more potent than 1c against MERS-CoV 3CLpro” value on MERS-CoV 3CLpro stood at 2 fold. Further, the “fold less active than 1c against SARS-CoV-2 3CLpro” value on SARS-CoV-2 3CLpro is “more than 4 fold”.

With `[2H]C([2H])(OC(=O)N[C@@H](CC(C)C)C(=O)N[C@H](C=O)C[C@@H]1CCNC1=O)C(C)(C)Sc1ccccc1` [2c, 2-Methyl-2-(phenylthio)propyl-1,1-d2 ((S)-4-methyl-1-oxo-1-(((S)-1-oxo-3-((S)-2-oxopyrrolidin-3-yl)propan-2-yl)amino)pentan-2-yl)carbamate], in the assay on alpha-chymotrypsin, the IC50 was over 50 µM.

The term IC50 denotes the point on the concentration scale where inhibition reaches its midpoint.

The record behind these values is article PMC10105399 (European Journal of Medicinal Chemistry, 2023).
